Source: patent publication US20250002865A1, “METHOD FOR PRODUCING ORGANISM, AND METHOD FOR PROMOTING DIFFERENTIATION OF HUMAN ADIPOSE-DERIVED STEM CELLS INTO VASCULAR ENDOTHELIAL CELLS” (TOPPAN Holdings Inc., priority 2021, published 2025)
“And” between values parts separate entries of the source, which are not always exact repeats. Equal entries are not always repeated.

Assays:
[1] = test system: human adipose stem cell (ADSC); conditions: 5 μM in EGM-2, 7 days, compared with EGM-2 without ALK5 inhibitor
Procedure: The culture medium was changed every 2 days, and culture was carried out for 7 days after seeding to obtain a tissue construct.
Fluorescence imaging of the tissue construct was carried out according to the following procedure. A transwell containing the obtained tissue construct was transferred to a 24-well plate. After washing with 2 mL of PBS, the tissue was fixed overnight under the condition of 4° C. using 2 mL of 4% PFA. Washing was carried out three times using 2 mL of PBS. Cells were subjected to permeabilization treatment for 7 minutes under room temperature conditions by using 0.05% Triton/PBS (500 μL in the transwell and 500 μL outside the transwell), and washing was carried out three times using 2 mL of PBS.
The tissue was subjected to blocking treatment for 1 hour under room temperature conditions by using a 1% BSA/PBS solution (500 μL in the transwell and 500 μL outside the transwell). The BSA solution was aspirated, and 100 μL of a primary antibody solution (an anti-CD31 antibody diluted 100-fold in a 1% BSA/PBS solution) was added (50 μL in the transwell and 50 μL outside the transwell). A wet tissue paper was placed under the plate, and the plate was covered with an aluminum foil and incubated overnight under the condition of 4° C. […]

[2] = test system: human adipose stem cell (ADSC); conditions: 5 μM in EGM-2 for 7 days, then 24 hours on Matrigel; compared with EGM-2 without ALK5 inhibitor
Procedure: The culture medium was changed every 2 days, culture was carried out for 7 days. Thereafter, the ADSC was separated from the dish using trypsin/EDTA and suspended in 1 mL of DMEM, and the number of cells was counted. Further, the recovered ADSC was seeded on a 24-well plate previously coated with Matrigel at concentrations of 1.0×10^5 cells/dish, 1.5×10^5 cells/dish, and 2.0×10^5 cells/dish, and incubated at 37° C. for 24 hours. Thereafter, the morphology of the tissue construct was evaluated with a phase contrast microscope.

[3] = test system: human adipose stem cell (ADSC); conditions: 5 μM in EGM-2, 7 days
Procedure: The culture medium was changed every 2 days, and culture was carried out for 7 days to obtain a tissue construct. Thereafter, the ADSC was gently detached while leaving cell surface proteins, by incubation for 5 minutes using 0.25% Trypsin, recovered from the dish, and suspended in 1 mL of DMEM, and the number of cells was counted.
The ratio of vascular endothelial cells in the tissue construct was analyzed by the flow cytometry analysis using BD Facsmelody (registered trademark) cell sorter (Becton, Dickinson and Company). The tissue construct recovered as described above was centrifuged (100 g, 5 minutes, 4° C.). […] Thereafter, cells were centrifuged (100 g, 5 minutes, 4° C.) to wash the cells, and the pelleted cells were suspended in a buffer, and 10,000 events were recorded. Further, an isotype control for the conjugated antibody was measured simultaneously. […]
The ratio of vascular endothelial cells in the sample was analyzed by the flow cytometry analysis using BD Facsmelody (registered trademark) cell sorter (Becton, Dickinson and Company). […] Thereafter, cells were centrifuged (100 g, 5 minutes, 4° C.) to wash the cells, and the pelleted cells were suspended in a buffer, and 10,000 events were recorded. Further, an isotype control for the conjugated antibody was measured simultaneously. […]

[4] = test system: cell balls of mature adipocytes and cells recovered from ADSC tissue construct
Procedure: Isolated ADSC was suspended in an EGM-2 medium, seeded in a 10-cm dish, and incubated at 37° C. The culture medium was changed every 2 days, and culture was carried out for 7 days to obtain a tissue construct. From this tissue construct, cells including ADSC, ADSC-derived vascular endothelial cells, and vascular endothelial progenitor cells were recovered.
The total number of cells of the tissue construct (cell ball) used was 4.0×10^4 cells/ball, and the mature adipocytes and the above-described recovered cells were used a ratio of 3:2.5 for the production.
The cell ball seeded in the low-adhesion 96-well plate was incubated in a 37° C. incubator for 15 minutes to carry out gelation, and 300 μL of EGM-2 or KBM was added thereto. […] In addition, EGM-2 or KBM, containing only insulin of a final concentration of 10 μg/mL and an ALK-5 inhibitor of 5 μM, was used as a control.
(§1) After 24 hours of culture, cells were transferred to a low-adhesion 24-well plate (IWAKI #4820-800LP), and 2 mL of the above EGM-2 or KBM was added thereto. The culture medium was changed every 2 to 3 days until the 7th day of culture.
The fluorescence imaging of the tissue construct was carried out as in Production Example 4, except that an anti-von Willebrand factor (vWF) antibody diluted 100-fold in a 1% BSA/PBS solution was used as a primary antibody solution and an Alexa Fluor 647-labeled anti-rabbit IgG antibody solution diluted 200-fold in 1% BSA/PBS solution was used as a secondary antibody solution. The vWF was used as a marker for vascular endothelial cells. In addition, for observation, the cell ball was placed directly on a complete plate of a Confocal Quantitative Image Cytometer CQ1 (Yokogawa Electric Corporation), and the stained tissue construct was observed using the Confocal Quantitative Image Cytometer CQ1 with laser excitation light at 640 nm.

[5] = test system: cell balls of mature adipocytes and cells recovered from ADSC tissue construct; conditions: VEGF 50 ng/mL in EGM-2 with 10 μg/mL insulin and 5 μM ALK-5 inhibitor, 7 days
Procedure: Regarding the produced tissue construct, 5 μL (equivalent to one cell ball) of the mixture (equivalent to 40 cell balls) was seeded on each well of a low-adhesion 96-well plate (IWAKI #4860-800LP).
The cell ball seeded in the low-adhesion 96-well plate was incubated in a 37° C. incubator for 15 minutes to carry out gelation, and 300 μL of EGM-2 containing insulin of a final concentration of 10 μg/mL, an AKL-5 inhibitor of 5 μM, and VEGF of 50 ng/mL was added thereto.
as §1
The fluorescence imaging of the tissue construct was carried out as in Production Example 4, except that various primary antibody solutions and the corresponding secondary antibody solutions were used. […]
For observation, the cell ball was placed directly on a complete plate of a Confocal Quantitative Image Cytometer CQ1 (Yokogawa Electric Corporation), and the stained tissue construct was observed using the Confocal Quantitative Image Cytometer CQ1. […]

| Molecule | vascular network formation by CD31 staining [1] | lumen formation / vascular network on Matrigel [2] | ratio of vascular endothelial cells (CD31+) based on number of total cells recovered [3] | vascular network, number of branches of blood vessels, vs control without VEGF ([4]; VEGF 0.5, 20, 50 or 100 ng/mL in EGM-2 or KBM with 10 μg/mL insulin and 5 μM ALK-5 inhibitor, 7 days) | vascular network, number of branches of blood vessels, vs culture medium containing leptin ([4]; VEGF-containing medium vs leptin 1 μg/mL, both with insulin and 5 μM ALK-5 inhibitor, 7 days) | vascular network, amount of blood vessels among VEGF concentrations ([4]; culture medium containing more than 20 ng/mL of VEGF) | proportion of vWF-positive vs CD34-positive cells among total CD31-positive cells [5] | vascular network formation in cell ball [5] |
| --- | --- | --- | --- | --- | --- | --- | --- | --- |
| Cc1cccc(-c2n[nH]cc2-c2ccc3ncccc3n2)n1 [ALK5 inhibitor, 2-[3-(6-methyl-2-pyridinyl)-1H-pyrazol-4-yl]-1,5-naphthyridine] | a vascular network in which the number of branches is larger is formed | lumen formation is further progressed | 29.29% and 32.4% | – | – | – | – | – |
| VEGF | – | – | – | the number of branches of blood vessels is large as compared with the control cell ball | the number of branches of blood vessels is large as compared with the cell ball cultured in a culture medium containing leptin | a vascular network having still more blood vessels was formed | the proportion of vWF-positive cells with respect to the total CD31-positive cells was higher than the proportion of CD34-positive cells | a vascular network was also formed |
